From US20230203004A1, “RSV INHIBITING 3-SUBSTITUTED QUINOLINE AND CINNOLINE DERIVATIVES” (Janssen Sciences Ireland Unlimited Company, priority 2020, published 2023)

Assays:
[1] = Cytotoxicity in HeLa cells (ATP content, ATPlite kit); assay type: cell-based; settings: human, TOX HELA CC50
Method in brief: (§1)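 HeLa cells infected with GFP-expressing rgRSV224 at MOI 1 in RPMI/10% FBS, 0.05% DMSO, with 9 serial 4-fold compound dilutions; 3 days at 37 °C, GFP read by laser microscopy for EC50. Cytotoxicity: uninfected HeLa cells, 3 days, cellular ATP (ATPlite) for CC50.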

rgRSV224 virus = assay: Antiviral activity: rgRSV224 (GFP) replication in HeLa cells; assay type: cell-based, respiratory syncytial virus (RSV); settings: human respiratory syncytial virus, HeLa, 72 h, read-out: RSV HELA EC50, HeLa cells, rgRSV224 MOI = 1, GFP expression three days post-virus exposure; averaged data of several repeat experiments
Method in brief: as §1

Row | Structure (SMILES) | CC50 at 3 days [1] [µM] | EC50 (rgRSV224 virus) [µM]
1 | COc1cc(C(=O)NC[C@](O)(c2cc(C(C)(C)O)c(F)c(-c3ccc(C(F)(F)F)cc3)n2)C(F)(F)F)cc2cc(C)nnc12 [compound 274, (-)Methoxy-3-Methyl-N-(3,3,3-Trifluoro-2-(5-Fluoro-4-(2-Hydroxypropan-2-yl)-6-(4-(Trifluoromethyl)Phenyl)pyridin-2-yl)-2-Hydroxypropyl)Cinnoline-6-Carboxamide] | 11 | 0.00148
2 | COc1cc(C(=O)NC[C@@](O)(c2cc(C(C)(C)O)c(F)c(-c3ccc(F)cc3)n2)C2CC2)cc2cc(C)nnc12 [compound 275] | 17 | 0.097
3 | COc1cc(C(=O)NC[C@](O)(c2cc(C(C)(C)NS(C)(=O)=O)c(Cl)c(-c3ccc(F)cc3)n2)C(F)(F)F)cc2cc(C)nnc12 [compound 276, (-)-N-{2-[5-Chloro-6-(4-Fluorophenyl)-4-{2-[(Methanesulfonyl)Amino]Propan-2-yl}Pyridin-2-yl]-3,3,3-Trifluoro-2-Hydroxypropyl}-8-Methoxy-3-Methylcinnoline-6-Carboxamide] | 51 | 0.0038
4 | COc1cc(C(=O)NC[C@](O)(c2cc(C(C)(C)O)c(Cl)c(-c3ccc(F)cc3)n2)C(F)(F)F)cc2cc(C(F)(F)F)nnc12 [compound 277] | 15 | 0.016
5 | COc1cc(C(=O)NC[C@](O)(c2cc(C(C)(C)O)c(F)c(-c3ccc(Cl)cc3)n2)C2CC2)cc2cc(C)nnc12 [compound 278] | 29 | 0.00065
6 | COc1cc(C(=O)NC[C@@](O)(c2nc(-c3ccc(F)cc3)cc(C(C)(C)O)c2F)C(F)(F)F)cc2cc(C)nnc12 [compound 280, (+)Methoxy-3-Methyl-N-(3.3.3-Trifluoro-2-(3-Fluoro-6-(4-Fluorophenyl)-4-(2-Hydroxypropan-2-yl)Pyridm-2-yl)-2-Hydroxypropyl)Cinnoline-6-Carboxamide] | 9.4 | 0.449
7 | COc1cc(C(=O)NC[C@](O)(c2nc(-c3ccc(F)cc3)cc(C(C)(C)O)c2F)C(F)(F)F)cc2cc(C)nnc12 [compound 281, (-)Methoxy-3-Methyl-N-(3,3,3-Trifluoro-2-(3-Fluoro-6-(4-Fluorophenyl)-4-(2-Hydroxypropan-2-yl)Pyridin-2-yl)-2-Hydroxypropyl)Cinnoline-6-Carboxarmide] | 24 | 0.029
8 | COc1cc(C(=O)NC[C@](O)(c2cc(C(C)(C)O)c(Cl)c(-c3ccc(F)cc3)n2)C2CC2)cc2cc(C3CC3)nnc12 [compound 282] | 13 | 0.0032
9 | COc1cc(C(=O)NC[C@](O)(c2cc(C(C)(C)O)c(F)c(-c3ccc(F)cc3)n2)C(C)C)cc2cc(C3CC3)nnc12 [compound 283, (-)Cyclopropyl-N-(2-(5-Fluoro-6-(4-Fluorophenyl)-4-(2-Hydroxypropan-2-yl)Pyridin-2-yl)-2-HydroxyMethylbutyl)-8-Methoxycinnoline-6-Carboxamide] | 12 | 0.0085
10 | COc1cc(C(=O)NC[C@](O)(c2cc(C(C)(C)O)c(F)c(-c3ccc(F)cc3)n2)C2CC2)cc2cc(C(F)(F)F)nnc12 [compound 284] | 16 | 0.0048
11 | COc1cc(C(=O)NC[C@](O)(c2cc(C(C)(C)O)c(F)c(-c3ccc(F)cc3)n2)C(C)C)cc2cc(C(F)F)nnc12 [compound 285, (S)(Difluoromethyl)-N-(2-(5-Fluoro-6-(4-Fluorophenyl)-4-(2-Hydroxypropan-2-yl)Pyridin-2-yl)-2-HydroxyMethylbutyl)-8-Methoxycinnoline-6-Carboxamide] | 16 | 0.0065
12 | COc1cc(C(=O)NC[C@](O)(c2cc(C(C)(C)O)c(F)c(-c3ccc(F)cc3)n2)C(F)(F)F)cc2cc(C3CC3)nnc12 [compound 286, (-)Cyclopropyl-8-Methoxy-N-(3,3,3-Trifluoro-2-(5-Fluoro-6-(4-Fluorophenyl)-4-(2-Hydroxypropan-2-yl)Pyridin-2-yl)-2-Hydroxypropyl)Cinnoline-6-Carboxamide] | 8.9 | 0.0026
13 | COc1cc(C(=O)NC[C@](O)(c2nc(-c3ccc(F)cc3)c(F)c(C(C)(C)O)c2F)C2CC2)cc2cc(C(F)F)nnc12 [compound 287] | 37 | 0.0089
14 | COc1cc(C(=O)NC[C@](O)(c2nc(-c3ccc(F)cc3)c(F)c(C(C)(C)O)c2F)C2CC2)cc2cc(C3CC3)nnc12 [compound 288, (-)Cyclopropyl-N-(2-Cyclopropyl-2-(3,5-Difluoro-6-(4-Fluorophenyl)-4-(2-Hydroxypropan-2-yl)Pyridin-2-yl)-2-Hydroxyethyl)-8-Methoxycinnoline-6-Carboxamide] | 21 | 0.0048
15 | [2H]C([2H])([2H])Oc1cc(C(=O)NC[C@](O)(c2cc(C(C)(C)O)c(F)c(-c3ccc(F)cc3)n2)C2CC2)cc2cc(C3CC3)nnc12 [compound 289, (-)Cyclopropyl-N-(2-Cyclopropyl-2-(5-Fluoro-6-(4-Fluorophenyl)-4-(2-Hydroxypropan-2-yl)Pyridin-2-yl)-2-Hydroxyethyl)-8-(Methoxy-d3)Cinnoline-6-Carboxamide] | 10 | 0.0018
16 | [2H]C([2H])([2H])Oc1cc(C(=O)NC[C@](O)(c2cc(C(C)(C)O)c(F)c(-c3ccc(F)cc3)n2)C2CC2)cc2cc(C)nnc12 [compound 290] | 28 | 0.00021

Row | Structure (SMILES) | CC50 at 3 days [1] [µM] | EC50 (rgRSV224 virus) [µM]
17 | Cc1cc2cc(C(=O)NC[C@](O)(c3cc(C(C)(C)O)cc(-c4ccc(F)cc4)n3)C(F)(F)F)cc(OC3CC3)c2nn1 [compound 291, (-)Cyclopropoxy-3-Methyl-N-(3,3,3-Trifluoro-2-(6-(4-Fluorophenyl)-4-(2-Hydroxypropan-2-yl)Pyridin-2-yl)-2-Hydroxypropyl)Cinnoline-6-Carboxamide] | 57 | 0.015
18 | COc1cc(C(=O)NC[C@](O)(c2cc(C(C)(C)O)c(F)c(-c3ccc(F)cc3)n2)C(F)F)cc2cc(C(F)F)nnc12 [compound 292, (-)-N-(3,3-difluoro-2-(5-fluoro-6-(4-fluorophenyl)-4-(2-hydroxypropan-2-yl)pyridin-2-yl)-2-hydroxypropyl)-3-(difluoromethyl)-8-methoxycinnoline-6-carboxamide] | 29 | 0.012
19 | COc1cc(C(=O)NC[C@](O)(c2cc(C(C)(C)O)c(F)c(-c3ccc(F)cc3)n2)C(F)F)cc2cc(C3CC3)nnc12 [compound 293, (-)Cyclopropyl-N-(3,3-Difluoro-2-(5-Fluoro-6-(4-Fluorophenyl)-4-(2-Hydroxypropan-2-yl)Pyridin-2-yl)-2-Hydroxypropyl)-8-Methoxycinnoline-6-Carboxamide] | 15 | 0.011
20 | COc1cc(C(=O)NC[C@](O)(c2cc(C(C)(C)O)c(F)c(-c3ccc(F)cc3)n2)C2(F)CC2)cc2cc(C)nnc12 [compound 296] | 56 | 0.002
21 | COc1cc(C(=O)NC[C@@](O)(c2cc(C(C)(C)O)c(F)c(-c3ccc(F)cc3)n2)C2(F)CC2)cc2cc(C)nnc12 [compound 297] | 45 | 0.058
22 | COc1cc(C(=O)NC[C@](O)(c2cc(C(C)(C)O)c(F)c(-c3ccc(F)cc3)n2)C2(C)CC2)cc2cc(C)nnc12 [compound 298] | 52 | 0.0026
23 | COc1cc(C(=O)NC[C@@](O)(c2cc(C(C)(C)O)c(F)c(-c3ccc(F)cc3)n2)C2(C)CC2)cc2cc(C)nnc12 [compound 299] | 12 | 0.093
24 | COc1cc(C(=O)NC[C@](O)(c2cc(C(C)(C)O)cc(-c3ccc(F)cc3)n2)C2CC2)cc2cc(C)nnc12 [compound 304] | 23 | 0.0021
25 | COc1cc(C(=O)NC[C@@](O)(c2cc(C(C)(C)O)cc(-c3ccc(F)cc3)n2)C2CC2)cc2cc(C)nnc12 [compound 305] | 41 | 0.642
26 | COc1cc(C(=O)NC[C@](O)(c2cc(C(C)(C)O)cc(-c3ccc(F)cc3)n2)C(C)(C)F)cc2cc(C)nnc12 [compound 306] | 50 | 0.001
27 | COc1cc(C(=O)NC[C@@](O)(c2cc(C(C)(C)O)cc(-c3ccc(F)cc3)n2)C(C)(C)F)cc2cc(C)nnc12 [compound 307] | 43 | 0.04
28 | Cc1cc2cc(C(=O)NC[C@](O)(c3cc(C(C)(C)O)c(F)c(-c4ccc(F)cc4)n3)C(F)F)cc(OC3CC3)c2nn1 [compound 308, (-)Cyclopropoxy-N-(3,3-Difluoro-2-(5-Fluoro-6-(4-Fluorophenyl)-4-(2-Hydroxypropan-2-yl)Pyridin-2-yl)-2-Hydroxypropyl)-3-Methylcinnoline-6-Carboxamide] | 38 | 0.0023
29 | COc1cc(C(=O)NC[C@](O)(c2cc(C(C)(C)O)cc(-c3ccc(F)cc3)n2)C(C)(F)F)cc2cc(C)nnc12 [compound 309, (-)-N-(3,3-difluoro-2-(6-(4-fluorophenyl)-4-(2-hydroxypropan-2-yl)pyridin-2-yl)-2-hydroxybutyl)-8-methoxy-3-methylcinnoline-6-carboxamide] | 34 | 0.011
30 | COc1cc(C(=O)NC[C@@](O)(c2cc(C(C)(C)O)cc(-c3ccc(F)cc3)n2)C(C)(F)F)cc2cc(C)nnc12 [compound 310, (+)-N-(3,3-difluoro-2-(6-(4-fluorophenyl)-4-(2-hydroxypropan-2-yl)pyridin-2-yl)-2-hydroxybutyl)-8-methoxy-3-methylcinnoline-6-carboxamide] | 55 | > 1.25
31 | [2H]C([2H])([2H])c1cc2cc(C(=O)NC[C@](O)(c3cc(C(C)(C)O)c(F)c(-c4ccc(F)cc4)n3)C(F)(F)F)cc(OC)c2nn1 [compound 311, (-)Methoxy-3-(Methyl-d3)-N-(3,3,3-Trifluoro-2-(5-Fluoro-6-(4-Fluorophenyl)-4-(2-Hydroxypropan-2-yl)Pyridin-2-yl)-2-Hydroxypropyl)Cinnoline-6-Carboxamide] | 42 | 0.0013
